Test results as given in US20230063238A1, “IMMUNOMODULATORS” (Bristol-Myers Squibb Company, priority 2020, published 2023).
Starred links: 1 amine or outer side, 2 acyl side, 3 side chain; linkers in the order of their positions; H or OH if unused. Positions of bridges follow the written chain, without caps; N, C: chain ends. Non-standard residues stand in square brackets, D forms with d. Residues, ends and D or L forms follow the SMILES beside them. *: point of attachment. Trp(1-CH2CO2Me) = COC(=O)Cn1cc(C[C@H](N)C(=O)O)c2ccccc21; Trp(1-CH2COOH) = N[C@@H](Cc1cn(CC(=O)O)c2ccccc12)C(=O)O; Hyp = O=C(O)[C@@H]1C[C@@H](O)CN1; X8 = O=C(Nc1cc(F)cc(F)c1)C(=O)*; X5 = O=C(C(=O)*)N1CCc2ccccc2C1; Oxalyl = O=C(C(=O)[*:2])[*:1]; NMeNle = CCCC[C@H](NC)C(=O)O; X10 = Cc1cc(NC(=O)C(=O)*)no1; X2 = CCc1nnc(NC(=O)C(=O)*)s1; X4 = O=C(Nc1cccc(F)c1)C(=O)*; X6 = CN1CCN(C(=O)C(=O)*)CC1; X1 = O=C(Oc1ccccc1)C(=O)*; NMeA = CN[C@@H](C)C(=O)O; Dab = NCC[C@H](N)C(=O)O; Dap = NC[C@H](N)C(=O)O; Oxamoyl = NC(=O)C(=O)*; X7 = CN(C)C(=O)C(=O)*

Target: T1, PD-1/PD-L1 (Homo sapiens, UniProt Q9NZQ7)
T1 construct: TVMV protease site linker (C); made in house; host or cells: HEK293T cells
Assay: PD-1/PD-L1 Homogenous Time-Resolved Fluorescence (HTRF) binding assay
Details: PD-L1-His 10 nM final, PD-1-Ig 20 nM final; inhibitors pre-incubated with PD-L1-His for 15 m
Text: The ability of the compounds of formula (I) to bind to PD-L1 was investigated using a PD-1/PD-L1 Homogenous Time-Resolved Fluorescence (HTRF) binding assay.
Homogenous Time-Resolved Fluorescence (HTRF) Binding Assay
The interaction of PD-1 and PD-L1 can be assessed using soluble, purified preparations of the extracellular domains of the two proteins. The PD-1 and PD-L1 protein extracellular domains were expressed as fusion proteins with detection tags, for PD-1, the tag was the Fc portion of Immunoglobulin (PD-1-Ig) and for PD-L1 it was the 6 histidine motif (PD-L1-His). All binding studies were performed in an HTRF assay buffer consisting of dPBS supplemented with 0.1% […] bovine serum albumin and 0.05% (v/v) Tween-20. For the h/PD-L1-His binding assay, inhibitors were pre-incubated with PD-L1-His (10 nM final) for 15 m in 4 μl of assay buffer, followed by addition of PD-1-Ig (20 nM final) in 1 μl of assay buffer and further incubation for 15m. HTRF detection was achieved using europium crypate-labeled anti-Ig (1 nM final) and allophycocyanin (APC) labeled anti-His (20 nM final). Antibodies were diluted in HTRF detection buffer and 5 μl was dispensed on top of the binding reaction. The reaction mixture was allowed to equilibrate for 30 minutes and the resulting signal (665 nm/620 nm ratio) was obtained using an EnVision fluorometer. Additional binding assays were established between the human proteins PD-1-Ig/PD-L2-His (20 & 5 nM, respectively) and CD80-His/PD-L1-Ig (100 & 10 nM, respectively).
Recombinant Proteins: Human PD-1 (25-167) with a C-terminal human Fc domain of immunoglobulin G (Ig) epitope tag [hPD-1 (25-167)-3S-IG] and human PD-L1 (18-239) with a C-terminal His epitope tag [hPD-L1(18-239)-TVMV-His] were expressed in HEK293T cells and purified sequentially by ProteinA affinity chromatography and size exclusion chromatography. Human PD-L2-His and CD80-His was obtained through commercial sources.
Table 1 lists the IC50 values for representative examples of this disclosure measured in the PD-1/PD-L1 Homogenous Time-Resolved Fluorescence (HTRF) binding assay.

T1 sequence (Q9NZQ7 18-239): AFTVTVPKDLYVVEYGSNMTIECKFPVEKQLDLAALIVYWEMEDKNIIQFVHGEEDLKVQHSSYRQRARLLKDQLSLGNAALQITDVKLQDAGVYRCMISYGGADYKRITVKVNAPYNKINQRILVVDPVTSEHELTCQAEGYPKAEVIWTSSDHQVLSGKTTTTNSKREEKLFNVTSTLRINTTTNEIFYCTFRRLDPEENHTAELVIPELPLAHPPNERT

Structure (SMILES) | IC50 [nM]
CCCC[C@H]1C(=O)N(C)[C@@H](CCCC)C(=O)N[C@@H](CC(C)C)C(=O)N[C@H](C(=O)NCC(N)=O)CSCC(=O)N[C@@H](Cc2ccc(O)cc2)C(=O)N(C)[C@@H](C)C(=O)N[C@@H](CC(N)=O)C(=O)N2CCC[C@H]2C(=O)N[C@@H](CNC(=O)C(=O)Oc2ccccc2)C(=O)N[C@@H](CC(C)C)C(=O)N2C[C@H](O)C[C@H]2C(=O)N[C@@H](Cc2c[nH]c3ccccc23)C(=O)N[C@@H](CCNC(=O)C(=O)Oc2ccccc2)C(=O)N[C@@H](Cc2cn(CC(=O)O)c3ccccc23)C(=O)N1C [Compound 1001] ({CH2CO}-Y[NMeA]NP[Dap](X1)L[Hyp]W[Dab](X1)[Trp(1-CH2COOH)][NMeNle][NMeNle]LCG-NH2; thioether N-14) | 5.4
CCCC[C@H]1C(=O)N(C)[C@@H](CCCC)C(=O)N[C@@H](CC(C)C)C(=O)N[C@H](C(=O)NCC(N)=O)CSCC(=O)N[C@@H](Cc2ccc(O)cc2)C(=O)N(C)[C@@H](C)C(=O)N[C@@H](CC(N)=O)C(=O)N2CCC[C@H]2C(=O)N[C@@H](CNC(=O)C(=O)O)C(=O)N[C@@H](CC(C)C)C(=O)N2C[C@H](O)C[C@H]2C(=O)N[C@@H](Cc2c[nH]c3ccccc23)C(=O)N[C@@H](CCN)C(=O)N[C@@H](Cc2cn(CC(=O)OC)c3ccccc23)C(=O)N1C [Compound 1002] ({CH2CO}-Y[NMeA]NP[Dap](Oxalyl)L[Hyp]W[Dab][Trp(1-CH2CO2Me)][NMeNle][NMeNle]LCG-NH2; thioether N-14) | 3.1
CCCC[C@H]1C(=O)N(C)[C@@H](CCCC)C(=O)N[C@@H](CC(C)C)C(=O)N[C@H](C(=O)NCC(N)=O)CSCC(=O)N[C@@H](Cc2ccc(O)cc2)C(=O)N(C)[C@@H](C)C(=O)N[C@@H](CC(N)=O)C(=O)N2CCC[C@H]2C(=O)N[C@@H](CNC(=O)C(=O)N2CCc3ccccc3C2)C(=O)N[C@@H](CC(C)C)C(=O)N2C[C@H](O)C[C@H]2C(=O)N[C@@H](Cc2c[nH]c3ccccc23)C(=O)N[C@@H](CCNC(=O)C(=O)N2CCc3ccccc3C2)C(=O)N[C@@H](Cc2cn(CC(=O)OC)c3ccccc23)C(=O)N1C [Compound 2001] ({CH2CO}-Y[NMeA]NP[Dap](X5)L[Hyp]W[Dab](X5)[Trp(1-CH2CO2Me)][NMeNle][NMeNle]LCG-NH2; thioether N-14) | 3.4
CCCC[C@H]1C(=O)N(C)[C@@H](CCCC)C(=O)N[C@@H](CC(C)C)C(=O)N[C@H](C(=O)NCC(N)=O)CSCC(=O)N[C@@H](Cc2ccc(O)cc2)C(=O)N(C)[C@@H](C)C(=O)N[C@@H](CC(N)=O)C(=O)N2CCC[C@H]2C(=O)N[C@@H](CNC(=O)C(=O)Nc2cc(F)cc(F)c2)C(=O)N[C@@H](CC(C)C)C(=O)N2C[C@H](O)C[C@H]2C(=O)N[C@@H](Cc2c[nH]c3ccccc23)C(=O)N[C@@H](CCNC(=O)C(=O)Nc2cc(F)cc(F)c2)C(=O)N[C@@H](Cc2cn(CC(=O)OC)c3ccccc23)C(=O)N1C [Compound 2002] ({CH2CO}-Y[NMeA]NP[Dap](X8)L[Hyp]W[Dab](X8)[Trp(1-CH2CO2Me)][NMeNle][NMeNle]LCG-NH2; thioether N-14) | 350
CCCC[C@H]1C(=O)N(C)[C@@H](CCCC)C(=O)N[C@@H](CC(C)C)C(=O)N[C@H](C(=O)NCC(N)=O)CSCC(=O)N[C@@H](Cc2ccc(O)cc2)C(=O)N(C)[C@@H](C)C(=O)N[C@@H](CC(N)=O)C(=O)N2CCC[C@H]2C(=O)N[C@@H](CNC(=O)C(=O)Nc2cccc(F)c2)C(=O)N[C@@H](CC(C)C)C(=O)N2C[C@H](O)C[C@H]2C(=O)N[C@@H](Cc2c[nH]c3ccccc23)C(=O)N[C@@H](CCNC(=O)C(=O)Nc2cccc(F)c2)C(=O)N[C@@H](Cc2cn(CC(=O)OC)c3ccccc23)C(=O)N1C [Compound 2003] ({CH2CO}-Y[NMeA]NP[Dap](X4)L[Hyp]W[Dab](X4)[Trp(1-CH2CO2Me)][NMeNle][NMeNle]LCG-NH2; thioether N-14) | 370
CCCC[C@H]1C(=O)N(C)[C@@H](CCCC)C(=O)N[C@@H](CC(C)C)C(=O)N[C@H](C(=O)NCC(N)=O)CSCC(=O)N[C@@H](Cc2ccc(O)cc2)C(=O)N(C)[C@@H](C)C(=O)N[C@@H](CC(N)=O)C(=O)N2CCC[C@H]2C(=O)N[C@@H](CNC(=O)C(=O)N2CCN(C)CC2)C(=O)N[C@@H](CC(C)C)C(=O)N2C[C@H](O)C[C@H]2C(=O)N[C@@H](Cc2c[nH]c3ccccc23)C(=O)N[C@@H](CCNC(=O)C(=O)N2CCN(C)CC2)C(=O)N[C@@H](Cc2cn(CC(=O)OC)c3ccccc23)C(=O)N1C [Compound 2007] ({CH2CO}-Y[NMeA]NP[Dap](X6)L[Hyp]W[Dab](X6)[Trp(1-CH2CO2Me)][NMeNle][NMeNle]LCG-NH2; thioether N-14) | 9.1
CCCC[C@H]1C(=O)N(C)[C@@H](CCCC)C(=O)N[C@@H](CC(C)C)C(=O)N[C@H](C(=O)NCC(N)=O)CSCC(=O)N[C@@H](Cc2ccc(O)cc2)C(=O)N(C)[C@@H](C)C(=O)N[C@@H](CC(N)=O)C(=O)N2CCC[C@H]2C(=O)N[C@@H](CNC(=O)C(=O)Nc2nnc(CC)s2)C(=O)N[C@@H](CC(C)C)C(=O)N2C[C@H](O)C[C@H]2C(=O)N[C@@H](Cc2c[nH]c3ccccc23)C(=O)N[C@@H](CCNC(=O)C(=O)Nc2nnc(CC)s2)C(=O)N[C@@H](Cc2cn(CC(=O)OC)c3ccccc23)C(=O)N1C [Compound 2008] ({CH2CO}-Y[NMeA]NP[Dap](X2)L[Hyp]W[Dab](X2)[Trp(1-CH2CO2Me)][NMeNle][NMeNle]LCG-NH2; thioether N-14) | 3.2

Stronger by IC50, values ahead:

IC50 [nM] | Structure (SMILES)
3 | CCCC[C@H]1C(=O)N(C)[C@@H](CCCC)C(=O)N[C@@H](CC(C)C)C(=O)N[C@H](C(=O)NCC(N)=O)CSCC(=O)N[C@@H](Cc2ccc(O)cc2)C(=O)N(C)[C@@H](C)C(=O)N[C@@H](CC(N)=O)C(=O)N2CCC[C@H]2C(=O)N[C@@H](CNC(=O)C(=O)Nc2cc(C)on2)C(=O)N[C@@H](CC(C)C)C(=O)N2C[C@H](O)C[C@H]2C(=O)N[C@@H](Cc2c[nH]c3ccccc23)C(=O)N[C@@H](CCNC(=O)C(=O)Nc2cc(C)on2)C(=O)N[C@@H](Cc2cn(CC(=O)OC)c3ccccc23)C(=O)N1C [Compound 2004] ({CH2CO}-Y[NMeA]NP[Dap](X10)L[Hyp]W[Dab](X10)[Trp(1-CH2CO2Me)][NMeNle][NMeNle]LCG-NH2; thioether N-14)
2.4 | CCCC[C@H]1C(=O)N(C)[C@@H](CCCC)C(=O)N[C@@H](CC(C)C)C(=O)N[C@H](C(=O)NCC(N)=O)CSCC(=O)N[C@@H](Cc2ccc(O)cc2)C(=O)N(C)[C@@H](C)C(=O)N[C@@H](CC(N)=O)C(=O)N2CCC[C@H]2C(=O)N[C@@H](CNC(=O)C(=O)N(C)C)C(=O)N[C@@H](CC(C)C)C(=O)N2C[C@H](O)C[C@H]2C(=O)N[C@@H](Cc2c[nH]c3ccccc23)C(=O)N[C@@H](CCNC(=O)C(=O)N(C)C)C(=O)N[C@@H](Cc2cn(CC(=O)OC)c3ccccc23)C(=O)N1C [Compound 2005] ({CH2CO}-Y[NMeA]NP[Dap](X7)L[Hyp]W[Dab](X7)[Trp(1-CH2CO2Me)][NMeNle][NMeNle]LCG-NH2; thioether N-14)
2.7 | CCCC[C@H]1C(=O)N(C)[C@@H](CCCC)C(=O)N[C@@H](CC(C)C)C(=O)N[C@H](C(=O)NCC(N)=O)CSCC(=O)N[C@@H](Cc2ccc(O)cc2)C(=O)N(C)[C@@H](C)C(=O)N[C@@H](CC(N)=O)C(=O)N2CCC[C@H]2C(=O)N[C@@H](CNC(=O)C(N)=O)C(=O)N[C@@H](CC(C)C)C(=O)N2C[C@H](O)C[C@H]2C(=O)N[C@@H](Cc2c[nH]c3ccccc23)C(=O)N[C@@H](CCNC(=O)C(N)=O)C(=O)N[C@@H](Cc2cn(CC(=O)OC)c3ccccc23)C(=O)N1C [Compound 2006] ({CH2CO}-Y[NMeA]NP[Dap](Oxamoyl)L[Hyp]W[Dab](Oxamoyl)[Trp(1-CH2CO2Me)][NMeNle][NMeNle]LCG-NH2; thioether N-14)
